Measured values from patent US20240358692A1, “TREATMENT OF SCLERODERMA” (Aisa Pharma, Inc., priority 2023, published 2024).

What was measured:
participants with SSc-RP [1] = experiment: SHAQ - Visual Analog Scale - Finger Ulcers; format: in vivo, human
Text: The standard, validated, patient reported outcome measures tool for SSc patients, the Scleroderma Health Assessment Questionnaire (SHAQ), will be used to assess the participant qualify of life. Details are attached in the Appendix. The participant quality of life will be scored, and a disability index calculated for each questionnaire completed by the patient at Screening and each in-clinic visit. The absolute change in participant quality of life from baseline to the end of each dosing period will be calculated similar to frequency data as before.
The standard, validated, patient reported outcome measures tool for SSc patients, the SHAQ, was collected at the time points specified in the study schedules (FIG. 2 and FIGS. 4A and 4B) to assess the participant's quality of life. The SHAQ included a Raynaud's VAS that will also be reported separately.

participants with SSc-RP [2] = experiment: Average duration of weekly RP attacks (minutes), patient diary; format: in vivo, human; details: Cilnidipine 10 mg
Text: The absolute change in average duration of weekly RP attacks from baseline to the end of each dosing period was and will be a secondary outcome variable. The sponsor-developed participant-informed diary was and will be used to record data. Average duration of weekly RP attacks is defined as the total duration of RP attacks divided by total number of RP attacks within the last 7 days of each dosing period. Total duration of RP attacks during the last 7 days of screening period divided by the total number of RP attacks will be used as baseline for the analysis of all periods. The variable will be calculated similar to frequency data as before.

[3] = cilnidipine 10 mg (combination: + tadalafil 5 mg)
[4] = cilnidipine 20 mg (combination: + tadalafil 5 mg)
[5] = Excluding Outliers, ITT Population - Part A
[6] = Excluding Outliers, by Baseline RCS, first RCS subgroup of table (not named), ITT Population - Part A
[7] = by Baseline RCS, first RCS subgroup of table (not named), ITT Population - Part A
[8] = by Baseline RCS, first subgroup of table, ITT Population - Part A

## COCCOC(=O)C1=C(C)NC(C)=C(C(=O)OC/C=C/c2ccccc2)C1c1cccc([N+](=O)[O-])c1 (centres unmarked) [Cilnidipine]
Participants with SSc-RP [1]; Pooled Cilnidipine, PP, Part A
  SHAQ VAS Finger Ulcers, Percent Change from Baseline, Q1: −81.37,
  SHAQ VAS Finger Ulcers, Percent Change from Baseline, Q3: 47.22
Participants with SSc-RP [1]; [3]
  VAS Finger Ulcers Change from Baseline Max: 0.00
  VAS Finger Ulcers Change from Baseline Median: −0.350
  VAS Finger Ulcers Change from Baseline Min: −1.00
  VAS Finger Ulcers Change from Baseline Q1: −0.850
  VAS Finger Ulcers Change from Baseline Q3: 0.000
  VAS Finger Ulcers Day 12 Max: 1.10
  VAS Finger Ulcers Day 12 Median: 0.000
  VAS Finger Ulcers Day 12 Min: 0.00
  VAS Finger Ulcers Day 12 Q1: 0.000
  VAS Finger Ulcers Day 12 Q3: 0.550
  VAS Finger Ulcers Percent Change from Baseline Mean: −69.44%
  VAS Finger Ulcers Percent Change from Baseline Median: −69.44%
  VAS Finger Ulcers Percent Change from Baseline Min: −100.0%
  VAS Finger Ulcers Percent Change from Baseline Q1: −100.00%
Participants with SSc-RP [1]; [4]
  VAS Finger Ulcers Change from Baseline Max: 0.40
  VAS Finger Ulcers Change from Baseline Mean: −0.933
  VAS Finger Ulcers Change from Baseline Median: 0.000
  VAS Finger Ulcers Change from Baseline Min: −3.20
  VAS Finger Ulcers Change from Baseline Q1: −3.200
  VAS Finger Ulcers Change from Baseline Q3: 0.400
  VAS Finger Ulcers Day 12 Max: 1.90
  VAS Finger Ulcers Day 12 Median: 0.700
  VAS Finger Ulcers Day 12 Min: 0.00
  VAS Finger Ulcers Day 12 Q1: 0.000
  VAS Finger Ulcers Day 12 Q3: 1.900
  VAS Finger Ulcers Percent Change from Baseline Max: 133.3%
  VAS Finger Ulcers Percent Change from Baseline Mean: 35.29%
  VAS Finger Ulcers Percent Change from Baseline Median: 35.29%
  VAS Finger Ulcers Percent Change from Baseline Min: −62.7%
  VAS Finger Ulcers Percent Change from Baseline Q1: −62.75%
  VAS Finger Ulcers Percent Change from Baseline Q3: 133.33%
Participants with SSc-RP [2]; [5]
  Average Duration of Weekly RP Attacks (All Attacks), Change from Baseline, Mean: -8.48 min
  Average Duration of Weekly RP Attacks (All Attacks), Percent Change from Baseline, Mean: −21.20%
  Average Duration of weekly symptomatic RP attacks, Mean: 31.64 min
  Average Duration of weekly symptomatic RP attacks, Median: 31.64 min
  Percent Change from Baseline in average duration of weekly symptomatic RP attacks, Median: −34.60%
Participants with SSc-RP [2]; [6]
  Average Duration of weekly symptomatic RP attacks, Mean: 31.64 min
  Average Duration of weekly symptomatic RP attacks, Median: 31.64 min
  Change from Baseline in average duration of weekly symptomatic RP attacks, Mean: -16.74 min
  Change from Baseline in average duration of weekly symptomatic RP attacks, Median: -16.74 min
  Percent Change from Baseline in average duration of weekly symptomatic RP attacks, Mean: −34.60%
  Percent Change from Baseline in average duration of weekly symptomatic RP attacks, Median: −34.60%
Participants with SSc-RP [2]; ITT Part A
  Average Duration of Weekly Symptomatic RP Attacks Change from Baseline, Mean: -16.74 min
  Average Duration of Weekly Symptomatic RP Attacks Change from Baseline, Median: -16.74 min
  Average Duration of Weekly Symptomatic RP Attacks Percent Change from Baseline, Mean: −34.60%
  Average Duration of Weekly Symptomatic RP Attacks Percent Change from Baseline, Median: −34.60%
Participants with SSc-RP [2]; [7]
  Average Duration of weekly symptomatic RP attacks, Mean: 31.64 min
  Average Duration of weekly symptomatic RP attacks, Median: 31.64 min
  Change from Baseline in average duration of weekly symptomatic RP attacks, Mean: -16.74 min
  Change from Baseline in average duration of weekly symptomatic RP attacks, Median: -16.74 min
  Percent Change from Baseline in average duration of weekly symptomatic RP attacks, Mean: −34.60%
  Percent Change from Baseline in average duration of weekly symptomatic RP attacks, Median: −34.60%
Participants with SSc-RP [2]; [8]
  Average Duration of Weekly RP Attacks (All Attacks), Mean: 31.52 min
  Average Duration of Weekly RP Attacks (All Attacks), Median: 31.52 min
